Laboratory results as given in PubChem BioAssay (NCI).
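Growth conditions: 96-well plates. Treatment: test compound, 48 hours, 5 concentrations. Analysis: linear interpolation between bracketing concentrations; unreached endpoints set to highest concentration. GI50 is the concentration that inhibits growth by half. Definition used: TGI = concentration required for complete inhibition of growth.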

Tests used:
Test in all cases: NCI anticancer screen, dose series, 48 h
[1] = test system: K-562 leukemia
[2] = test system: SK-MEL-28 melanoma
[3] = test system: NCI/ADR-RES ovarian
[4] = test system: 786-0 renal
[5] = test system: UACC-62 melanoma
[6] = test system: OVCAR-8 ovarian
[7] = test system: SK-MEL-2 melanoma
[8] = test system: SNB-75 CNS
[9] = test system: MDA-MB-231 breast
[10] = test system: HL-60(TB) leukemia
[11] = test system: MDA-MB-435
[12] = test system: UO-31 renal
[13] = test system: MCF7 breast
[14] = test system: UACC-257 melanoma
[15] = test system: TK-10 renal
[16] = test system: SF-268 CNS
[17] = test system: NCI-H226 lung
[18] = test system: SF-539 CNS
[19] = test system: NCI-H23 lung
[20] = test system: HS 578T breast
[21] = test system: PC-3 prostate
[22] = test system: HCT-116 colon
[23] = test system: T-47D breast
[24] = test system: CAKI-1 renal
[25] = test system: A498 renal
[26] = test system: OVCAR-5 ovarian
[27] = test system: A549 NSCLC
[28] = test system: SNB-19 CNS
[29] = test system: ACHN renal
[30] = test system: M14 melanoma
[31] = test system: MOLT-4 leukemia
[32] = test system: HOP-92 NSCLC
[33] = test system: COLO 205 colon
[34] = test system: EKVX NSCLC
[35] = test system: SF-295 CNS
[36] = test system: HT29 colon
[37] = test system: U251 CNS
[38] = test system: SK-OV-3 ovarian
[39] = test system: IGROV1 ovarian
[40] = test system: MALME-3M melanoma
[41] = test system: HCT-15 colon
[42] = test system: HOP-62 NSCLC
[43] = test system: RXF 393 renal
[44] = test system: SK-MEL-5 melanoma
[45] = test system: SN12C renal
[46] = test system: OVCAR-4 ovarian
[47] = test system: DU-145 prostate
[48] = test system: SR leukemia
[49] = test system: BT-549 breast
[50] = test system: HCC-2998 colon
[51] = test system: NCI-H522 lung
[52] = test system: RPMI-8226 leukemia
[53] = test system: OVCAR-3 ovarian
[54] = test system: KM12 colon
[55] = test system: NCI-H460 lung
[56] = test system: SW-620 colon
[57] = test system: LOX IMVI melanoma
[58] = test system: CCRF-CEM leukemia

O=C(/C=C/c1ccc2ccccc2c1)NCc1ccc(C(=O)NCc2ccccc2)cc1
TGI [1]: > 31.6 µM | TGI [2]: > 100 µM | TGI [3]: > 100 µM | TGI [4]: > 100 µM | TGI [5]: > 100 µM | TGI [6]: > 100 µM | TGI [7]: > 100 µM | TGI [8]: 71.1 µM | TGI [9]: > 100 µM | TGI [10]: 38.8 µM | TGI [11]: > 100 µM | TGI [12]: > 100 µM | TGI [13]: > 100 µM | TGI [14]: > 100 µM | TGI [15]: > 100 µM | TGI [16]: > 100 µM | TGI [17]: 86.8 µM | TGI [18]: > 100 µM | TGI [19]: > 100 µM | TGI [20]: > 100 µM | TGI [21]: > 100 µM | TGI [22]: > 100 µM | TGI [23]: > 89.6 µM | TGI [24]: > 73.1 µM | TGI [25]: > 100 µM | TGI [26]: > 100 µM | TGI [27]: > 100 µM | TGI [28]: > 100 µM | TGI [29]: > 100 µM | TGI [30]: > 100 µM | TGI [31]: > 100 µM | TGI [32]: > 100 µM | TGI [33]: > 100 µM | TGI [34]: > 100 µM | TGI [35]: > 100 µM | TGI [36]: > 100 µM | TGI [37]: > 100 µM | TGI [38]: > 100 µM | TGI [39]: > 100 µM | TGI [40]: > 100 µM | TGI [41]: > 100 µM | TGI [42]: 52.9 µM | TGI [43]: > 100 µM | TGI [44]: > 100 µM | TGI [45]: > 100 µM | TGI [46]: > 100 µM | TGI [47]: > 100 µM | TGI [48]: > 100 µM | TGI [49]: > 100 µM | TGI [50]: > 100 µM | TGI [51]: > 100 µM | TGI [52]: > 100 µM | TGI [53]: > 100 µM | TGI [54]: > 100 µM | TGI [55]: > 100 µM | TGI [56]: > 100 µM | TGI [57]: > 100 µM | TGI [58]: > 100 µM

CNC(=O)c1ccccc1Nc1cc(Nc2ccc(N3CCOCC3)cc2OC)ncc1C(F)(F)F
GI50 [1]: 5 µM | TGI [1]: > 100 µM | GI50 [2]: 1.85 µM | TGI [2]: > 83.8 µM | GI50 [3]: 2.82 µM | TGI [3]: > 68.3 µM | GI50 [4]: 4.12 µM | TGI [4]: 34.6 µM | GI50 [5]: 0.419 µM | TGI [5]: 20.4 µM | GI50 [6]: 6.88 µM | TGI [6]: > 100 µM | GI50 [7]: 3.82 µM | TGI [7]: 24.9 µM | GI50 [8]: 1.31 µM | TGI [8]: 43.5 µM | GI50 [9]: 2.7 µM | TGI [9]: 47.1 µM | GI50 [10]: 1 µM | TGI [10]: 24.8 µM | GI50 [11]: 0.815 µM | TGI [11]: > 94.3 µM | GI50 [12]: 1.91 µM | TGI [12]: 17.8 µM | GI50 [13]: 0.296 µM | TGI [13]: 34.5 µM | GI50 [14]: 0.346 µM | TGI [14]: 63.7 µM | GI50 [15]: 1.23 µM | TGI [15]: 40.2 µM | GI50 [16]: 4.86 µM | TGI [16]: 80.9 µM | GI50 [17]: 2.42 µM | TGI [17]: 55.6 µM | GI50 [18]: 6.37 µM | TGI [18]: 34 µM | GI50 [19]: 0.757 µM | TGI [19]: 60.7 µM | GI50 [20]: 13.5 µM | TGI [20]: > 87.6 µM | GI50 [21]: 18.6 µM | TGI [21]: > 100 µM | GI50 [22]: 1.94 µM | TGI [22]: 19.1 µM | GI50 [23]: 14.5 µM | TGI [23]: 59.8 µM | GI50 [24]: 1.64 µM | TGI [24]: > 54.6 µM | GI50 [25]: 2.29 µM | TGI [25]: 10.5 µM | GI50 [26]: 0.637 µM | TGI [26]: > 100 µM | GI50 [27]: 1.7 µM | TGI [27]: 22.7 µM | GI50 [28]: 15.6 µM | TGI [28]: > 100 µM | GI50 [29]: 5.27 µM | TGI [29]: > 84.5 µM | GI50 [30]: 0.739 µM | TGI [30]: 32.2 µM | GI50 [31]: 6.64 µM | TGI [31]: > 86.8 µM | GI50 [32]: 0.011 µM | TGI [32]: 0.172 µM | GI50 [33]: 0.161 µM | TGI [33]: 1.37 µM | GI50 [34]: 0.341 µM | TGI [34]: 64.8 µM | GI50 [35]: 1.07 µM | TGI [35]: 41.8 µM | GI50 [36]: 0.333 µM | TGI [36]: 15.4 µM | GI50 [37]: 10.4 µM | TGI [37]: > 87.6 µM | GI50 [38]: 5.44 µM | TGI [38]: 57.6 µM | GI50 [39]: 2.28 µM | TGI [39]: > 100 µM | GI50 [40]: 0.264 µM | TGI [40]: 63.6 µM | GI50 [41]: 3.09 µM | TGI [41]: > 95.7 µM | GI50 [42]: 0.296 µM | TGI [42]: 52.5 µM | GI50 [43]: 3.08 µM | TGI [43]: 20 µM | GI50 [44]: 4.55 µM | TGI [44]: 22.1 µM | GI50 [45]: 12.2 µM | TGI [45]: > 81.5 µM | GI50 [46]: 3.24 µM | TGI [46]: > 100 µM | GI50 [47]: 3.4 µM | TGI [47]: > 81.5 µM | GI50 [48]: 0.248 µM | TGI [48]: 12.4 µM | GI50 [49]: 8.14 µM | TGI [49]: 41.8 µM | GI50 [50]: 1.68 µM | TGI [50]: 62.4 µM | GI50 [51]: 7.67 µM | TGI [51]: 37.6 µM | GI50 [52]: 3.61 µM | TGI [52]: 48 µM | GI50 [53]: 13.1 µM | TGI [53]: > 85.3 µM | GI50 [54]: 1.18 µM | TGI [54]: 11.6 µM | GI50 [55]: 2.54 µM | TGI [55]: 19.4 µM | GI50 [56]: 1.92 µM | TGI [56]: > 65.6 µM | GI50 [57]: 1.45 µM | TGI [57]: 18.5 µM | GI50 [58]: 8.49 µM | TGI [58]: 97.8 µM
